In the test the test system is P388 leukemia ip, CD2F1 mice, survival T/C. In words: NCI In Vivo Anticancer Drug Screen. Data for tumor model P388 Leukemia (intraperitoneal) in CD2F1 (CDF1) mice. Conditions: endpoint: median survival time, higher = longer survival. A digest of the protocol: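 Mice carrying the transplanted tumor received test compound or vehicle. Survival was recorded in each group, and the value is the treated-group measurement divided by that of the vehicle-treated control group.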

Where [1] appears, read: dose: 60.0 mg/kg/injection, schedule: Q01DX005 (ip), vehicle: saline with Tween-80.
Setting [2] is: dose: 120.0 mg/kg/injection, schedule: Q01DX005 (ip), vehicle: saline with Tween-80.
Setting [3] is: dose: 240.0 mg/kg/injection, schedule: Q01DX005 (ip), vehicle: saline with Tween-80.
The mark [4] stands for this setting: dose: 50.0 mg/kg/injection, schedule: Q01DX009 (ip), vehicle: saline.
Setting [5] is: dose: 50.0 mg/kg/injection, schedule: Q01DX005 (ip), vehicle: Klucel (hydroxypropylcellulose) (HPC).
Setting [6] is: dose: 100.0 mg/kg/injection, schedule: Q01DX005 (ip), vehicle: Klucel (hydroxypropylcellulose) (HPC).
Setting [7] is: dose: 200.0 mg/kg/injection, schedule: Q01DX005 (ip), vehicle: Klucel (hydroxypropylcellulose) (HPC).
The mark [8] stands for this setting: dose: 100.0 mg/kg/injection, schedule: Q04DX002 (ip), vehicle: saline with Tween-80.
[9] abbreviates: dose: 200.0 mg/kg/injection, schedule: Q04DX002 (ip), vehicle: saline with Tween-80.
Setting [10] is: dose: 400.0 mg/kg/injection, schedule: Q04DX002 (ip), vehicle: saline with Tween-80.
The mark [11] stands for this setting: dose: 100.0 mg/kg/injection, schedule: Q01DX009 (ip), vehicle: Klucel (hydroxypropylcellulose) (HPC).
Setting [12] is: dose: 200.0 mg/kg/injection, schedule: Q01DX009 (ip), vehicle: Klucel (hydroxypropylcellulose) (HPC).
Where [13] appears, read: dose: 400.0 mg/kg/injection, schedule: Q01DX009 (ip), vehicle: Klucel (hydroxypropylcellulose) (HPC).
[14] abbreviates: dose: 100.0 mg/kg/injection, schedule: Q04DX003 (ip), vehicle: saline with Tween-80.
Setting [15] is: dose: 200.0 mg/kg/injection, schedule: Q04DX003 (ip), vehicle: saline with Tween-80.
Where [16] appears, read: dose: 100.0 mg/kg/injection, schedule: Q01DX001 (ip), vehicle: saline with Tween-80.
Setting [17] is: dose: 200.0 mg/kg/injection, schedule: Q01DX001 (ip), vehicle: saline with Tween-80.
[18] abbreviates: dose: 400.0 mg/kg/injection, schedule: Q01DX001 (ip), vehicle: saline with Tween-80.
The mark [19] stands for this setting: dose: 12.5 mg/kg/injection, schedule: Q01DX009 (ip), vehicle: water.
Setting [20] is: dose: 25.0 mg/kg/injection, schedule: Q01DX009 (ip), vehicle: water.

“And” between values parts separate entries of the source, which are not always exact repeats. Identical values can stand only once. Inconclusive results and toxic doses are left out.

For the molecule `FC(F)(F)c1ccccc1NC(=S)N1CCN(c2ccccc2)CC1`, the T/C (dose: 50.0 mg/kg/injection, schedule: Q01DX009 (ip), vehicle: gum acacia) was 109 % of control; the T/C (dose: 100.0 mg/kg/injection, schedule: Q01DX009 (ip), vehicle: gum acacia) was 100 % of control; the T/C (dose: 200.0 mg/kg/injection, schedule: Q01DX009 (ip), vehicle: gum acacia) was 92 % of control.
As to `Nc1ccc(S(=O)(=O)CCCl)cc1`, the T/C is, setting by setting: (dose: 12.5 mg/kg/injection, schedule: Q04DX003 (ip), vehicle: Klucel (hydroxypropylcellulose) (HPC)) 96 % of control; (dose: 25.0 mg/kg/injection, schedule: Q04DX003 (ip), vehicle: Klucel (hydroxypropylcellulose) (HPC)) 102 % of control; (dose: 50.0 mg/kg/injection, schedule: Q04DX003 (ip), vehicle: Klucel (hydroxypropylcellulose) (HPC)) 105 % of control; (dose: 100.0 mg/kg/injection, schedule: Q04DX003 (ip), vehicle: Klucel (hydroxypropylcellulose) (HPC)) 107 % of control; (dose: 200.0 mg/kg/injection, schedule: Q04DX003 (ip), vehicle: Klucel (hydroxypropylcellulose) (HPC)) 112 % of control.
For `CCOc1cc2c(cc1C(C)c1ccc(OC)cc1)OCO2` (centres undefined), the T/C is 96 % of control (dose: 25.0 mg/kg/injection, schedule: Q01DX005 (ip), vehicle: distilled water + alcohol); 100 % of control and 119 % of control (dose: 50.0 mg/kg/injection, schedule: Q01DX005 (ip), vehicle: distilled water + alcohol); 123 % of control (dose: 100.0 mg/kg/injection, schedule: Q01DX005 (ip), vehicle: distilled water + alcohol); 92 % of control (dose: 200.0 mg/kg/injection, schedule: Q01DX005 (ip), vehicle: distilled water + alcohol).
Take `C#CC(C)(C)Oc1ccc2c(=O)c(-c3ccc(OC)c(OC)c3)coc2c1`: the T/C is 90 % of control under setting [1], 92 % of control under setting [2] and 89 % of control under setting [3].
Take `CNC(=O)OCc1c(COC(=O)NC)c(-c2ccc(Cl)cc2)n(C)c1C`: the T/C runs as follows: (dose: 6.25 mg/kg/injection, schedule: Q01DX009 (ip), vehicle: distilled water + Tween-80) 155 % of control; (dose: 12.5 mg/kg/injection, schedule: Q01DX009 (ip), vehicle: distilled water + Tween-80) 150 % of control and 153 % of control.
`Cc1cccn2ccnc12`: the T/C (dose: 25.0 mg/kg/injection, schedule: Q01DX009 (ip), vehicle: saline) was 100 % of control and 93 % of control; the T/C under setting [4] is 100 % of control and 96 % of control; the T/C (dose: 100.0 mg/kg/injection, schedule: Q01DX009 (ip), vehicle: saline) is 120 % of control and 94 % of control.
Turning to `CC(C)c1cccc(C(C)C)c1NC(=O)Nc1ccc(Cl)cc1Cl`, the T/C was 114 % of control under setting [1], 104 % of control under setting [2] and 116 % of control under setting [3].
`CC[C@@]12C[C@]1(C(=O)OC)C(=O)N1CCc3c([nH]c4ccccc34)[C@H]12`: the T/C by setting is: under setting [5], 90 % of control; under setting [6], 96 % of control; under setting [7], 91 % of control.
Turning to `Cc1ccccc1SSCCN`, the T/C by setting is: under setting [5], 103 % of control; under setting [6], 103 % of control.
For the molecule `O=C1CN2Cc3c(sc4c3CCCC4)N=C2N1`, the T/C reads like this: under setting [5], 106 % of control; under setting [6], 102 % of control; under setting [7], 99 % of control.
In the case of `CS/C(N)=N/NC(=O)CCC(=O)Nc1cc(C)ccc1C`, the T/C by setting is: under setting [8], 102 % of control; under setting [9], 101 % of control; under setting [10], 90 % of control.
As for `CCC(=O)O[C@H]1CC[C@H]2[C@@H]3CC[C@H]4CCCC[C@]4(C)[C@H]3CC[C@]12C`, the T/C is, setting by setting: under setting [11], 90 % of control; under setting [12], 95 % of control; under setting [13], 105 % of control.
On to `Nc1nc2ncnc(N)c2nc1-c1ccc(N(CCO)CCO)cc1`, for which the T/C by setting is: (dose: 60.0 mg/kg/injection, schedule: Q01DX005 (ip), vehicle: Klucel (hydroxypropylcellulose) (HPC)) 91 % of control; (dose: 120.0 mg/kg/injection, schedule: Q01DX005 (ip), vehicle: Klucel (hydroxypropylcellulose) (HPC)) 90 % of control; (dose: 240.0 mg/kg/injection, schedule: Q01DX005 (ip), vehicle: Klucel (hydroxypropylcellulose) (HPC)) 91 % of control.
As for `O=C1CCc2nc(-c3ccccc3)ncc21`, the T/C under setting [14] was 99 % of control; the T/C under setting [15] is 89 % of control; the T/C (dose: 400.0 mg/kg/injection, schedule: Q04DX003 (ip), vehicle: saline with Tween-80) was 88 % of control.
In the case of `O=C1OCC2C1Cc1cc(O)c(O)cc1C2c1ccc(O)c(O)c1` (centres undefined), the T/C under setting [11] is 94 % of control, the T/C under setting [12] is 92 % of control and the T/C under setting [13] is 111 % of control.
As to `O=C(O)c1c[nH]c2cc(OCc3ccc(Cl)c(Cl)c3)ccc2c1=O`, the T/C reads like this: (dose: 12.5 mg/kg/injection, schedule: Q01DX009 (ip), vehicle: saline with Tween-80) 95 % of control; (dose: 25.0 mg/kg/injection, schedule: Q01DX009 (ip), vehicle: saline with Tween-80) 91 % of control; (dose: 50.0 mg/kg/injection, schedule: Q01DX009 (ip), vehicle: saline with Tween-80) 94 % of control; under setting [4], 92 % of control.
As for `O=C(O)Cc1cn2cc(Br)cc(Br)c2n1`, the T/C is 109 % of control under setting [16], 97 % of control under setting [17] and 98 % of control under setting [18].
As for `Cc1ccc(-c2nc3ncnc(N)c3[nH]2)cc1`, the T/C is 100 % of control (dose: 6.25 mg/kg/injection, schedule: Q04DX003 (ip), vehicle: saline with Tween-80); 100 % of control (dose: 12.5 mg/kg/injection, schedule: Q04DX003 (ip), vehicle: saline with Tween-80); 100 % of control and 107 % of control and 114 % of control (dose: 25.0 mg/kg/injection, schedule: Q04DX003 (ip), vehicle: saline with Tween-80); 102 % of control and 113 % of control (dose: 50.0 mg/kg/injection, schedule: Q04DX003 (ip), vehicle: saline with Tween-80); 108 % of control and 124 % of control under setting [14]; 116 % of control under setting [15].
As to `NC(CCP(=O)(O)O)C(=O)O` (centres undefined), the T/C runs as follows: (dose: 50.0 mg/kg/injection, schedule: Q01DX005 (ip), vehicle: saline) 107 % of control; (dose: 100.0 mg/kg/injection, schedule: Q01DX005 (ip), vehicle: saline) 97 % of control; under setting [8], 100 % of control; (dose: 200.0 mg/kg/injection, schedule: Q01DX005 (ip), vehicle: saline) 92 % of control; under setting [9], 87 % of control; under setting [10], 89 % of control.
Take `OCC1OC(n2cc(I)c3c2ncn2nnnc32)C(O)C1O` (centres undefined): the T/C is, setting by setting: (dose: 3.13 mg/kg/injection, schedule: Q01DX009 (ip), vehicle: water) 99 % of control; (dose: 6.25 mg/kg/injection, schedule: Q01DX009 (ip), vehicle: water) 100 % of control; under setting [19], 97 % of control; under setting [20], 97 % of control; (dose: 50.0 mg/kg/injection, schedule: Q01DX009 (ip), vehicle: water) 89 % of control.
Take `O=c1[nH]c(=O)n(C2OC(CO)C(O)C2O)cc1CC(F)(F)C(F)(F)F` (centres undefined): the T/C is 107 % of control (dose: 50.0 mg/kg/injection, schedule: Q01DX001 (ip), vehicle: saline with Tween-80); 106 % of control under setting [16]; 100 % of control under setting [17]; 101 % of control under setting [18].
Turning to `CCCCN(CCCC)CC(C)(C)C(O)c1ccc(OC)c2ccccc12` (centres undefined), the T/C reads like this: (dose: 12.5 mg/kg/injection, schedule: Q01DX005 (ip), vehicle: saline with Tween-80) 106 % of control; (dose: 25.0 mg/kg/injection, schedule: Q01DX005 (ip), vehicle: saline with Tween-80) 106 % of control; (dose: 50.0 mg/kg/injection, schedule: Q01DX005 (ip), vehicle: saline with Tween-80) 101 % of control and 103 % of control.
In the case of `COc1ccc2nc3cc(Cl)ccc3c(NCCCCN3CCCC3)c2n1`, the T/C under setting [19] is 101 % of control and the T/C under setting [20] is 105 % of control.

(Values after PubChem BioAssay AID330 (DTP/NCI, 2004).)
